Converted amounts (≈) assume the structure as drawn.
Experiments:
Format in all cases: functional
[1] = test system: Mycobacterium tuberculosis; experiment: Antimycobacterial activity against multidrug-resistant Mycobacterium tuberculosis isolate R-1-38 by agar proportion method
[2] = test system: Mycobacterium tuberculosis; experiment: Antimycobacterial activity against multidrug-resistant Mycobacterium tuberculosis isolate P-4-11 by agar proportion method
[3] = test system: Mycobacterium tuberculosis; experiment: Antimycobacterial activity against multidrug-resistant Mycobacterium tuberculosis isolate Q-4-1 by agar proportion method
[4] = test system: Mycobacterium tuberculosis; experiment: Antimycobacterial activity against streptomycin-resistant Mycobacterium tuberculosis isolate A-3-47 by agar proportion method
[5] = test system: Mycobacterium tuberculosis; experiment: Antimycobacterial activity against isoniazid, rifampicin-resistant Mycobacterium tuberculosis isolate J-1-19 by agar proportion method
[6] = test system: Mycobacterium tuberculosis; experiment: Antimycobacterial activity against multidrug-resistant Mycobacterium tuberculosis isolate A-2-6 by agar proportion method
[7] = test system: Mycobacterium tuberculosis; experiment: Antimycobacterial activity against multidrug-resistant Mycobacterium tuberculosis isolate M-1-32 by agar proportion method
[8] = test system: Mycobacterium tuberculosis; experiment: Antimycobacterial activity against isoniazid, rifampicin-resistant Mycobacterium tuberculosis isolate A-2-3 by agar proportion method
[9] = test system: Mycobacterium tuberculosis; experiment: Antimycobacterial activity against multidrug-resistant Mycobacterium tuberculosis isolate U-4-6 by agar proportion method
[10] = test system: Mycobacterium tuberculosis; experiment: Antimycobacterial activity against multidrug-resistant Mycobacterium tuberculosis isolate N-4-11 by agar proportion method
[11] = test system: Mycobacterium tuberculosis; experiment: Antimycobacterial activity against isoniazid-resistant Mycobacterium tuberculosis isolate A-2-1 by agar proportion method
[12] = test system: Mycobacterium tuberculosis; experiment: Antimycobacterial activity against rifampicin-resistant Mycobacterium tuberculosis isolate A-2-4 by agar proportion method
[13] = test system: Mycobacterium tuberculosis; experiment: Antimycobacterial activity against streptomycin-resistant Mycobacterium tuberculosis isolate A-4-8 by agar proportion method
[14] = test system: Mycobacterium tuberculosis; experiment: Antimycobacterial activity against multidrug-resistant Mycobacterium tuberculosis isolate U-2-15 by agar proportion method
[15] = test system: Mycobacterium tuberculosis; experiment: Antimycobacterial activity against multidrug-resistant Mycobacterium tuberculosis isolate N-5-2 by agar proportion method
[16] = test system: Mycobacterium tuberculosis; experiment: Antimycobacterial activity against isoniazid, streptomycin-resistant Mycobacterium tuberculosis isolate A-4-25 by agar proportion method
[17] = test system: Mycobacterium tuberculosis; experiment: Antimycobacterial activity against multidrug-resistant Mycobacterium tuberculosis isolate K-3-6 by agar proportion method
[18] = test system: Mycobacterium tuberculosis; experiment: Antimycobacterial activity against multidrug-resistant Mycobacterium tuberculosis isolate Z-1-4 by agar proportion method
[19] = test system: Mycobacterium tuberculosis; experiment: Antimycobacterial activity against multidrug-resistant Mycobacterium tuberculosis isolate P-1-50 by agar proportion method

Q: For `CC(=O)N[C@@H]1[C@@H](O)[C@H](O)[C@@H](CO)O[C@H]1SC(=S)N(C)C`, which MIC [1] is on record?
A: The MIC was 6.25 µg/mL (≈ 19.3 µM).

Q: And the MIC [2]?
A: Its MIC is 6.25 µg/mL (≈ 19.3 µM).

Q: What about the MIC [3] of the same compound?
A: Its MIC is 6.25 µg/mL (≈ 19.3 µM).

Q: And the MIC [4]?
A: Its MIC is 6.25 µg/mL (≈ 19.3 µM).

Q: And the MIC [5]?
A: Its MIC is 6.25 µg/mL (≈ 19.3 µM).

Q: What about the MIC [6] of the same compound?
A: The MIC was 6.25 µg/mL (≈ 19.3 µM).

Q: What about the MIC [7] of the same compound?
A: Its MIC is 6.25 µg/mL (≈ 19.3 µM).

Q: What about the MIC [8] of the same compound?
A: Its MIC is 3.12 µg/mL (≈ 9.62 µM).

Q: What about the MIC [9] of the same compound?
A: The MIC was 6.25 µg/mL (≈ 19.3 µM).

Q: And the MIC [10]?
A: The MIC was 6.25 µg/mL (≈ 19.3 µM).

Q: What about the MIC [11] of the same compound?
A: The MIC was 6.25 µg/mL (≈ 19.3 µM).

Q: And the MIC [12]?
A: Its MIC is 6.25 µg/mL (≈ 19.3 µM).

Q: What about the MIC [13] of the same compound?
A: The MIC was 6.25 µg/mL (≈ 19.3 µM).

Q: What about the MIC [14] of the same compound?
A: The MIC was 3.12 µg/mL (≈ 9.62 µM).

Q: And the MIC [15]?
A: Its MIC is 1.56 µg/mL (≈ 4.81 µM).

Q: What about the MIC [16] of the same compound?
A: Its MIC is 6.25 µg/mL (≈ 19.3 µM).

Q: And the MIC [17]?
A: Its MIC is 6.25 µg/mL (≈ 19.3 µM).

Q: And the MIC [18]?
A: The MIC was 6.25 µg/mL (≈ 19.3 µM).

Q: What about the MIC [19] of the same compound?
A: Its MIC is 6.25 µg/mL (≈ 19.3 µM).
